Experimental data: patent JP2006083192A, “サイトカイン異常産生又は接着作用の亢進に伴う疾患を予防又は治療するための薬剤” (Otsuka Pharmaceutical Co Ltd, priority 1996, dated 1998)

Assays:
Assay type in all cases: cell-based
IL-6 production (IL−6産生) = experiment: 薬理試験5 IL−6産生抑制作用 (inhibition of IL-6 production, human whole blood); settings: same method as pharmacological test 3 (human whole blood, LPS, 37℃, 24 h)
[1] = test system: IFN-γ production (IFN−γ産生); experiment: 薬理試験6 IFN−γ産生抑制作用 (inhibition of IFN-γ production, human whole blood); settings: concanavalin A (ConA), 37℃, 48 h, ELISA
IL-1 production (IL−1産生) = experiment: 薬理試験4 IL−1産生抑制作用 (inhibition of IL-1 production, human whole blood); settings: same method as pharmacological test 3 (human whole blood, LPS, 37℃, 24 h)

CCOc1ccc(-c2nc(-c3cccc(C(=O)O)n3)cs2)cc1OCC [実施例2]
IC50 (IL-6 production (IL−6産生)): ≥ 100 µM
IC50 [1]: 5 µM
IC50 (IL-1 production (IL−1産生)): 80 µM
